Common to all, as to format: binding
One assay has as its system Fc-fragment. The experiment in a line: SPR screen, Fc-fragment. The method, then: (§1) The screening procedure was based on in vitro screening using two independent in solution analytical techniques relying on saturation difference transfer NMR (STD NMR) and Surface Plasmon Resonace (SPR) methods.
(§2) In the SPR screen 53 compounds were tested (non-soluble substances were excluded) for affinity towards a monoclonal antibody and a commercially available Fc-fragment. Analysis data were corrected for the different molecular weights and are presented as percentage of the theoretical maximal response.
(§3) In order to select potential candidates for further investigations SPR data were arranged in such a way that all substances with a response higher than 10% for both Fc fragment and IgG were selected as potential candidates. These compounds were compared with the ones indicated by the NMR-screening. It turned out that most of the SPR derived hits had been rejected in NMR screen due to unspecific binding towards α-amylase.
(§4) Further structures (commercially available compounds) surrounding compound I were investigated in solution in order to optimize the affinity ligand candidate. These compounds were subject to a corresponding SPR and NMR analysis for affinity as was presented above. However this time only the Fc-fragment was used in the NMR screening while the SPR analysis was performed with the corresponding test proteins as in the first selection.

For assay [1], the system named is monoclonal antibody (IgG). The experiment in a line: SPR screen, monoclonal antibody. Here is the method: as §1, §2, §3, §4
The test system of assay [2] is two different monoclonal antibodies (MAbs) and a commercially available Fc-fragment. The experiment in a line: STD NMR screening for affinity towards IgG related proteins. The method, then: as §1
In the NMR screen 69 substances were tested for affinity towards two different monoclonal antibodies (MAbs) and a commercially available Fc-fragment. Unspecific protein binding was investigated by testing for affinity towards α-amylase. Compounds that were found having affinity towards all three IgG related proteins, but no affinity towards α-amylase were assigned as potential candidates for affinity ligands towards the Fc-part of IgG.
as §4

On to `CCOC(=O)c1c[nH]c2ncnn2c1=O` [Compound II], for which, in the assay with Fc-fragment (second selection), the “ranking for affinity towards Fc-fragment by SPR” value was “at least medium ranking”. In addition, the “ranking for affinity towards IgG molecule as indicated by SPR” value in assay [1] (second selection) is “high ranking”. Besides, the NMR affinity result in assay [2] (second selection, only the Fc-fragment used in the NMR screening) is “positive by NMR”.
As for `CC(=O)Nc1nc2[nH]c(C)c(Cc3ccccc3)c(=O)n2n1` [Compound I], the “SPR response, percentage of the theoretical maximal response” value in the assay on Fc-fragment (Fc fragment, corrected for molecular weight) is recorded as “higher than 10%”; in assay [1] (IgG (monoclonal antibody), corrected for molecular weight), “higher than 10%”. In addition, the “outcome of NMR screen (affinity towards all three IgG related proteins, no affinity towards α-amylase)” value in assay [2] (STD NMR, two MAbs and Fc-fragment) was “selected as potential affinity candidate by both methods”.
